Data reported in ChEMBL document CHEMBL4602617, “Discovery and optimization of heteroaryl piperazines as potent and selective PI3Kδ inhibitors” (Bioorg Med Chem Lett, 2020).

How the values were obtained:
[1] = molecular target: Serine/threonine-protein kinase BRSK1 (Homo sapiens, UniProt Q8TDC3); assay: Inhibition of recombinant GST-tagged human BRSK1 expressed in baculovirus expression system using Ser/Thr-21 as substrate after 1 hr in presence of ATP by Z'-LYTE assay
Activin receptor type-1B = Activin receptor type-1B (Homo sapiens, UniProt P36896); assay: Inhibition of recombinant GST-tagged human ALK4 (150 to 505 residues) expressed in baculovirus expression system using Ser/Thr-16 peptide as substrate incubated for 60 mins in presence of ATP by Z'-LYTE assay
[2] = molecular target: Vasopressin V2 receptor (Homo sapiens) (UniProt P30518); assay: Displacement of [3H]-(Arg8)-Vasopressin from recombinant full length human V2 receptor expressed in CHO-K1 cells at 10 uM after 120 mins by radiometric scintillation analysis relative to control; type: cell-based
Cavia porcellus = organism: Cavia porcellus; assay: Displacement of [3H]nitrobenzylthioinosine from adenosine transporter in guinea pig cerebral cortical membranes at 10 uM after 30 mins by radiometric scintillation analysis relative to control
Rattus norvegicus = organism: Rattus norvegicus; assay: Displacement of [3H]CGP-54626 from GABAB in Wistar rat whole brain at 10 uM incubated for 20 mins by radiometric scintillation analysis relative to control; type: tissue-based
[3] = molecular target: Endothelin-1 receptor (Homo sapiens) (UniProt P25101); assay: Displacement of [125I]endothelin-1 from recombinant full length human recombinant ETA receptor expressed in CHO-S cells at 10 uM measured after 120 mins by radiometric scintillation analysis relative to control; type: cell-based
[4] = molecular target: Gastrin/cholecystokinin type B receptor (Homo sapiens) (UniProt P32239); assay: Displacement of [125I]CCK-8 from recombinant full length human recombinant CCK2 expressed in Chem-1 cells at 10 uM measured after 3 hrs by radiometric scintillation analysis relative to control; type: cell-based
Gastrin/cholecystokinin type B receptor (Homo sapiens), sequence (P32239 whole entry): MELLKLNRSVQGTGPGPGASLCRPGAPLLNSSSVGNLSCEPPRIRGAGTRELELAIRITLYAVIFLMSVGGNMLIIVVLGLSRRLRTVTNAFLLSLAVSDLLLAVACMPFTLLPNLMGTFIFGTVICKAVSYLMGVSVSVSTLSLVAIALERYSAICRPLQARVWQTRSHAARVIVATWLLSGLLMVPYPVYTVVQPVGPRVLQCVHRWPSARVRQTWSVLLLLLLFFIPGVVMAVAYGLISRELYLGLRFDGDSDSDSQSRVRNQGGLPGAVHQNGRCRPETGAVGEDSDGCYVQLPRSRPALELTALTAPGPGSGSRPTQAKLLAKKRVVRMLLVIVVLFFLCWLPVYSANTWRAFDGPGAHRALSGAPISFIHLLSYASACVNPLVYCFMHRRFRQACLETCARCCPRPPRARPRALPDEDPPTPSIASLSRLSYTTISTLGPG

[5] = molecular target: Mitogen-activated protein kinase 3 (Homo sapiens, UniProt P27361); assay: Inhibition of recombinant full-length human ERK1 expressed in Escherichia coli at 10 uM using MBP as substrate after 30 mins by radiometric scintillation analysis relative to control
[6] = molecular target: Tyrosine-protein kinase Fer (Homo sapiens, UniProt P16591); assay: Inhibition of recombinant GST-tagged human FER (541 to 822 residues) cytoplasmic domain expressed in baculovirus expression system using Tyr 05 peptide as substrate after 1 hr in presence of ATP by Z'-LYTE assay
[7] = molecular target: Fibroblast growth factor receptor 2 (Homo sapiens, UniProt P21802); assay: Inhibition of recombinant His-tagged human FGFR2 (403 to 822 residues) cytoplasmic domain expressed in baculovirus expression system using Tyr 04 peptide as substrate after 1 hr in presence of ATP by Z'-LYTE assay
Fibroblast growth factor receptor 2, sequence (P21802 whole entry, the tested form may be a part): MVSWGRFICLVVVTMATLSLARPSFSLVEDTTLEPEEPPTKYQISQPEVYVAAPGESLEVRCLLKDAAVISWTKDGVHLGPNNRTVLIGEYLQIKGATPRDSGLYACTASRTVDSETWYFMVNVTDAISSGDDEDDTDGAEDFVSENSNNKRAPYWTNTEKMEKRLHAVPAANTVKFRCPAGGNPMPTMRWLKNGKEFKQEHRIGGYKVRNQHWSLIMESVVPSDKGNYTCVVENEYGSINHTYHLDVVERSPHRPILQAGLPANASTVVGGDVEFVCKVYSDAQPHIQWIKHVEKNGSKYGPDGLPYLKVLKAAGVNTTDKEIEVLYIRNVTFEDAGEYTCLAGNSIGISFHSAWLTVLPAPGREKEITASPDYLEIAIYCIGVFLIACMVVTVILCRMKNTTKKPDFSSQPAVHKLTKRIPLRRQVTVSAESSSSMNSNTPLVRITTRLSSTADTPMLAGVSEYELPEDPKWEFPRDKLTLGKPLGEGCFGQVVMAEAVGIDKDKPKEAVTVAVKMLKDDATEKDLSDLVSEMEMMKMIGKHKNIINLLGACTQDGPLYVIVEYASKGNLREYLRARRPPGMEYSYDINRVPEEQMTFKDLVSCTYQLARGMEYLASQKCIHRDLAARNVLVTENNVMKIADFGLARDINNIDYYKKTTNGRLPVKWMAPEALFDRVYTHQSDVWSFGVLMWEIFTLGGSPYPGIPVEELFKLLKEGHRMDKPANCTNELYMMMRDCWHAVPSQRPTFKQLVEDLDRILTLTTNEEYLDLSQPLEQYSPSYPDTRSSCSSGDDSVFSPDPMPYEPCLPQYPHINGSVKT

[8] = molecular target: Homeodomain-interacting protein kinase 3 (Homo sapiens, UniProt Q9H422); assay: Inhibition of recombinant human His-tagged HIPK3 catalytic domain expressed in baculovirus expression system using serine/threonine-9 peptide as substrate incubated for 60 mins in presence of ATP by Z'-LYTE assay
[9] = molecular target: Homeodomain-interacting protein kinase 4 (Homo sapiens, UniProt Q8NE63); assay: Inhibition of recombinant full length human N-terminal GST-tagged HIPK4 expressed in baculovirus expression system using serine/threonine-18 peptide as substrate incubated for 60 mins in presence of ATP by Z'-LYTE assay
[10] = molecular target: Tyrosine-protein kinase JAK1 (Homo sapiens, UniProt P23458); assay: Inhibition of human recombinant GST tagged JAK1 expressed in baculovirus expression system using Tyr6 peptide as substrate measured after 1 hr in presence of ATP by Z'-LYTE assay
[11] = molecular target: Mast/stem cell growth factor receptor Kit (Homo sapiens, UniProt P10721); assay: Inhibition of human recombinant His-tagged KIT cytoplasmic domain expressed in baculovirus expression system using Tyr6 peptide as measured after 1 hr in presence of ATP by Z'-LYTE assay
[12] = molecular target: Mitogen-activated protein kinase 14 (Homo sapiens, UniProt Q16539); assay: Inhibition of recombinant full length GST-tagged human inactive MAPK14 expressed in Escherichia coli using Ser/Thr 04 as substrate after 1 hr in presence of ATP by Z'LYTE assay
Mitogen-activated protein kinase 14, sequence (Q16539 whole entry): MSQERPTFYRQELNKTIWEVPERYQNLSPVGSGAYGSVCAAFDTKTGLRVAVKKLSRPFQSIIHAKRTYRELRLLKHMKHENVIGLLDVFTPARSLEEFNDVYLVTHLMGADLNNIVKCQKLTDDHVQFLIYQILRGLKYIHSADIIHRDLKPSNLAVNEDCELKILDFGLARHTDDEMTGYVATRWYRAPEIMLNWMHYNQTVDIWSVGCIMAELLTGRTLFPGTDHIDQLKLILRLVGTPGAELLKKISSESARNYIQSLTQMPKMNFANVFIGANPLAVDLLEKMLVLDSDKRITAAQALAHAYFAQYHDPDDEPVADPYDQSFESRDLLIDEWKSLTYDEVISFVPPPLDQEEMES

[13] = molecular target: Mitogen-activated protein kinase 9 (Homo sapiens, UniProt P45984); assay: Inhibition of recombinant full length human His-tagged JNK2 expressed in baculovirus expression system using serine/threonine-4 peptide as substrate incubated for 60 mins in presence of ATP by Z'-LYTE assay
Mitogen-activated protein kinase 9, sequence (P45984 whole entry, the tested form may be a part): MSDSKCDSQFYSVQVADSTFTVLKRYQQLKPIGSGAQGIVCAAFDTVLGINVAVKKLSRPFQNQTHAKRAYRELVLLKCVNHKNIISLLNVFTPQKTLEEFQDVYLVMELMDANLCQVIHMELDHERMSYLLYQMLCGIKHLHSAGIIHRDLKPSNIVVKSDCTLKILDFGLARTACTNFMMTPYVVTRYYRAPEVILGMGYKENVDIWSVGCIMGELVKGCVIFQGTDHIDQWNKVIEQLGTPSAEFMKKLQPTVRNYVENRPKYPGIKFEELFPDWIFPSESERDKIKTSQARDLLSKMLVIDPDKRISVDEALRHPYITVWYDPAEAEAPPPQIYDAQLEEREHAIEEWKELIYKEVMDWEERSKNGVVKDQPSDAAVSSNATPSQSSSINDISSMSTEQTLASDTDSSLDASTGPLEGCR

[14] = molecular target: Tyrosine-protein kinase Mer (Homo sapiens, UniProt Q12866); assay: Inhibition of recombinant human GST-tagged MER (578 to 872 residues) expressed in baculovirus expression system using tyrosine-2 peptide as substrate incubated for 60 mins in presence of ATP by Z'-LYTE assay
[15] = molecular target: Hepatocyte growth factor receptor (Homo sapiens, UniProt P08581, M1250T); assay: Inhibition of human recombinant His-tagged cMET M1250T mutant cytoplasmic domain expressed in baculovirus expression system using tyrosine 6 peptide as substrate after 60 mins in presence of ATP FRET based Z'-LYTE assay
[16] = molecular target: BDNF/NT-3 growth factors receptor (Homo sapiens, UniProt Q16620); assay: Inhibition of recombinant human His-tagged NTRK2 cytoplasmic domain (526 to 838 residues) expressed in baculovirus expression system using tyrosine-01 peptide as substrate incubated for 60 mins in presence of ATP by Z'-LYTE assay
[17] = molecular target: NT-3 growth factor receptor (Homo sapiens, UniProt Q16288); assay: Inhibition of recombinant human His-tagged TrkC cytoplasmic domain (510 to 825 residues) expressed in baculovirus using tyr 01 as substrate incubated for 1 hr in presence of ATP by Z'-Lyte assay
[18] = molecular target: Serine/threonine-protein kinase PAK 2 (Homo sapiens, UniProt Q13177); assay: Inhibition of recombinant full length human GST-tagged PAK2 expressed in baculovirus expression system using serine/threonine-20 peptide as substrate incubated for 60 mins in presence of ATP by Z'-LYTE assay
[19] = molecular target: Proto-oncogene tyrosine-protein kinase receptor Ret (Homo sapiens, UniProt P07949); assay: Inhibition of recombinant human GST-tagged RET cytoplasmic domain expressed in baculovirus expression system using tyr02 peptide as substrate incubated for 60 mins in presence of ATP by Z'-LYTE assay
Proto-oncogene tyrosine-protein kinase receptor Ret, sequence (P07949 whole entry, the tested form may be a part): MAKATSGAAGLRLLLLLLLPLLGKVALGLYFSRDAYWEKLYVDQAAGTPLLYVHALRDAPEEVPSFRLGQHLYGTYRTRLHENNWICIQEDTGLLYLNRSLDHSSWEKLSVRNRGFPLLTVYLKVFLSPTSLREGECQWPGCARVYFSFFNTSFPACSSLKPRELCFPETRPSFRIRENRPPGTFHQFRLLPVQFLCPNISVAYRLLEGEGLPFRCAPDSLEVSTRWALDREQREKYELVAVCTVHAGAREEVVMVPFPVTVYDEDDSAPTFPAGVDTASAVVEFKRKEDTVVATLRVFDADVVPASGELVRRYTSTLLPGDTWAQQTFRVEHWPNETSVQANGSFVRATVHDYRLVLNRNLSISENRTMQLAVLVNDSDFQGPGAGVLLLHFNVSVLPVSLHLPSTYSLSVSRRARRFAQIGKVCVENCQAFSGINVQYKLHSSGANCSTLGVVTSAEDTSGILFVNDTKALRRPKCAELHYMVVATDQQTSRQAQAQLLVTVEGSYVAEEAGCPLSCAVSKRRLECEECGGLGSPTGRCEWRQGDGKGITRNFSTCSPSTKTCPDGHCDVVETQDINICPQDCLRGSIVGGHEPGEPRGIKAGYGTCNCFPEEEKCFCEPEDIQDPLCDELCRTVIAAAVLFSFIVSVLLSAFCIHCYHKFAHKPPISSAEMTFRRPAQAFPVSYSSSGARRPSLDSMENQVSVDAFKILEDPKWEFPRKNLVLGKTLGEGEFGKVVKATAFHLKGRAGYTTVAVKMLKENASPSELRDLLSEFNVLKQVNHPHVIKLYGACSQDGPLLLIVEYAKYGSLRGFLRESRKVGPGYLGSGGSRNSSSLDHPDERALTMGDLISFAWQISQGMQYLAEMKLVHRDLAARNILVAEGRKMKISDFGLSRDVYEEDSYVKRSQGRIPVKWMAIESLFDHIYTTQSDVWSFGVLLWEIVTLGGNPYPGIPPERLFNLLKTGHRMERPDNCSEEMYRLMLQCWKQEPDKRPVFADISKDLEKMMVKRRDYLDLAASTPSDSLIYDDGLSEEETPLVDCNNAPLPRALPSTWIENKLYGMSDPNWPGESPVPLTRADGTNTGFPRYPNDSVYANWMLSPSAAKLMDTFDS

[20] = molecular target: Ribosomal protein S6 kinase alpha-5 (Homo sapiens, UniProt O75582); assay: Inhibition of recombinant full length human GST-tagged RPS6KA5 expressed in baculovirus expression system using ser/Thr01 peptide as substrate incubated for 60 mins in presence of ATP by Z'-LYTE assay
[21] = molecular target: Testis-specific serine/threonine-protein kinase 1 (Homo sapiens, UniProt Q9BXA7); assay: Inhibition of recombinant full length human His-tagged TSSK1 expressed in baculovirus expression system using serine/threonine-4 peptide as substrate incubated for 60 mins in presence of ATP by Z'-LYTE assay
Angiopoietin-1 receptor = Angiopoietin-1 receptor (Homo sapiens, UniProt Q02763); assay: Inhibition of recombinant human GST-tagged TIE2 (817 to 1101 residues) expressed in baculovirus expression system using tyrosine-5 peptide as substrate incubated for 60 mins in presence of ATP by Z'-LYTE assay
Angiopoietin-1 receptor, sequence (Q02763 whole entry, the tested form may be a part): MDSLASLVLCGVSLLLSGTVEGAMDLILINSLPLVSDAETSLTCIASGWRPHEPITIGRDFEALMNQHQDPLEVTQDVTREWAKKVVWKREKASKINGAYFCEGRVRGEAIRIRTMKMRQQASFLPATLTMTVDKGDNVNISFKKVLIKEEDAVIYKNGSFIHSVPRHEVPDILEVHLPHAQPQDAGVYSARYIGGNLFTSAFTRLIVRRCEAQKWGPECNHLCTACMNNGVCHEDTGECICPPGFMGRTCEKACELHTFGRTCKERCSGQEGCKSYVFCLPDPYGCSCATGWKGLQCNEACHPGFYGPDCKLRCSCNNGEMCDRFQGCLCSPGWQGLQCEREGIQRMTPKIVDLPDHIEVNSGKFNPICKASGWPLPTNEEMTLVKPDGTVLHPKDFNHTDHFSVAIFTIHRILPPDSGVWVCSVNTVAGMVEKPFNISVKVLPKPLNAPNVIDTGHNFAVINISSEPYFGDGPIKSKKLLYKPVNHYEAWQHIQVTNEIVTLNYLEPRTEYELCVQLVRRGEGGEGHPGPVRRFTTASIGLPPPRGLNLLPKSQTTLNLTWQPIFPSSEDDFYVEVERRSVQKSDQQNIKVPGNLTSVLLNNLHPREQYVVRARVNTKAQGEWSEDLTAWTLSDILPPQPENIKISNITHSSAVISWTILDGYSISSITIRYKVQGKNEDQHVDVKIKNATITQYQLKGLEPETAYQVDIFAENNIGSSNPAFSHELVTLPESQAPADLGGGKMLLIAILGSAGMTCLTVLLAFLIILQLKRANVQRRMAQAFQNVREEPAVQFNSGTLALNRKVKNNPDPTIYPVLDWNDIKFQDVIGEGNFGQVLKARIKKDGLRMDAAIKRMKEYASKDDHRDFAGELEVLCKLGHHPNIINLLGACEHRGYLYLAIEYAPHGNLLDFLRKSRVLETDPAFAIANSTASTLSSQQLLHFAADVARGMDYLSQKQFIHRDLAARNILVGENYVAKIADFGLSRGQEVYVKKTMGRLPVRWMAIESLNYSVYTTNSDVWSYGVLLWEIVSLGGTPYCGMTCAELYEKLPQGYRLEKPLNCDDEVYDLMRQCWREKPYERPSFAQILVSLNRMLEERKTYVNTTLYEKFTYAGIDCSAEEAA

Serine/threonine-protein kinase BRSK1, sequence (Q8TDC3 whole entry, the tested form may be a part): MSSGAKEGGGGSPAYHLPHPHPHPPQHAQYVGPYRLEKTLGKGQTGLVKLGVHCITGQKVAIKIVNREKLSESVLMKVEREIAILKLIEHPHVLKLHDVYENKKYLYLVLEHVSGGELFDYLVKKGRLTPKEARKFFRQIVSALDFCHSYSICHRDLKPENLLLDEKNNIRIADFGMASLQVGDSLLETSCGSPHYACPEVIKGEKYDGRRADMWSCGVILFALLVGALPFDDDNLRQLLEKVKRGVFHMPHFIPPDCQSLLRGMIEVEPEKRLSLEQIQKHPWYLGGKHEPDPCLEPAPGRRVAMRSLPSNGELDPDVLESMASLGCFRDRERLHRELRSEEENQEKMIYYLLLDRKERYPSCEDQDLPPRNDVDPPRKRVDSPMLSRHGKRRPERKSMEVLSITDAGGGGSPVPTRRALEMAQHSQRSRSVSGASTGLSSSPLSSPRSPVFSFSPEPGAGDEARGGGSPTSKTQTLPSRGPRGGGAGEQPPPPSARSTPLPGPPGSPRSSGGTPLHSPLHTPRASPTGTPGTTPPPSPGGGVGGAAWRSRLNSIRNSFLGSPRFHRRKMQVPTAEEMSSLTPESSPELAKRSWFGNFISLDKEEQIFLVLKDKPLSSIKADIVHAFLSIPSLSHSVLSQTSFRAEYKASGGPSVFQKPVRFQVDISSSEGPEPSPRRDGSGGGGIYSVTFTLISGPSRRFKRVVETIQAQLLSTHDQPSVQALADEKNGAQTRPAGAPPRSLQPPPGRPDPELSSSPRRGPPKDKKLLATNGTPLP

C[C@@H]1C[C@H]1C(=O)N1CCN(c2cnc(C#N)c(-c3cnn(C)c3)n2)C[C@H]1C
-2%: inhibition (Rattus norvegicus)
-9%: inhibition [3]
1%: inhibition [2]
-4%: inhibition [4]
41%: inhibition (Cavia porcellus)
18%: inhibition [5]
> 100 µM: IC50 [1] | IC50 (Activin receptor type-1B) | IC50 [6] | IC50 [7] | IC50 [8] | IC50 [9] | IC50 [10] | IC50 [11] | IC50 [12] | IC50 [13] | IC50 [14] | IC50 [15] | IC50 [16] | IC50 [17] | IC50 [18] | IC50 [19] | IC50 [20] | IC50 [21] | IC50 (Angiopoietin-1 receptor)
